# Values of other authors as cited in patent US6982284B1, “Compositions and methods for modification of skin lipid content” (Applied Genetics Incorporated Dermatics, priority 1999, dated 2006).
# Test system: living skin equivalents
Compound,"glucosylceramides and ceramides, most notably ceramides 6 and 7 (50 ug/ml)",effect on lipid composition
O=C1O[C@H]([C@@H](O)CO)C(O)=C1O [Vitamin C],increases,–
Vitamin E,–,no effect
